How the values were obtained:
[1] = tested on: U205 osteosarcoma; experiment: In-vitro cytotoxicity MTT assay (Example 4); assay type: cell-based, human; details: 72 h, read-out: IC50 cisplatin 72 h
Method: (§1) The in-vitro cytotoxicity was studied by means of the MTT assay (Promega), a colorimetric method in which a tetrazolium-based compound is reduced by living cells to give formazan. The amount of formazan formed is directly proportional to the number of living cells in the culture. Each cell line was incubated in microliter dishes for 48 hours before adding the medicaments. Cisplatin or Au55 was added, followed by an incubation for 72 or 24 hours. Subsequently, the MTT assays were carried out following Promega's information.
(§2) Table 2 below depicts the inhibitory concentrations of cisplatin and [Au55] incubations with various cell lines over 72 and 24 hours, respectively. The IC50 data were calculated from the graphs obtained from the in vitro cytotoxicity assays MTT. Each experiment was repeated three times independently from one another by way of determination in triplicate.

[2] = tested on: HeLa cervical cancer cells; experiment: In-vitro cytotoxicity MTT assay (Example 4); assay type: cell-based, human; details: 72 h, read-out: IC50 cisplatin 72 h
Method: as §1, §2

[3] = tested on: MOR/P lung cancer cells, cisplatin-sensitive; experiment: In-vitro cytotoxicity MTT assay (Example 4); assay type: cell-based, human; details: 72 h
Method: as §1, §2

[4] = In-vitro cytotoxicity MTT assay (Example 4); assay type: cell-based, human; details: Hek, 72 h; read-out: IC50 cisplatin 72 h
Method: as §1, §2

[5] = tested on: BLM metastatic melanoma; experiment: In-vitro cytotoxicity MTT assay (Example 4); assay type: cell-based, human; details: 72 h, read-out: IC50 cisplatin 72 h
Method: as §1, §2

[6] = tested on: MV3 metastatic melanoma; experiment: In-vitro cytotoxicity MTT assay (Example 4); assay type: cell-based, human; details: 72 h, read-out: IC50 cisplatin 72 h
Method: as §1, §2

[7] = tested on: MOR/CPR lung cancer cells, cisplatin-resistant; experiment: In-vitro cytotoxicity MTT assay (Example 4); assay type: cell-based, human
Method: as §1
Diagram 4 relates to in-vitro cytotoxicity assays on cisplatin-resistant MOR/CPR lung tumor cells, incubated with different concentrations of Au55(Ph2PC6H4SO3H)12Cl6 [Au55] for 24 hours. Each point represents 3 experiments carried out independently of one another and repeated in each case three times.
Diagramm 5 relates to in-vitro cytotoxicity assays on cisplatin-resistant MOR/CPR lung tumor cells incubated with different concentrations of free ligand, Ph2PC6H4SO3H, for 24 hours. Each point represents 3 independent experiments repeated in each case in triplicate.
Table 2 below depicts the inhibitory concentrations of cisplatin and [Au55] incubations with various cell lines over 72 and 24 hours, respectively. The IC50 data were calculated from the graphs obtained from the in vitro cytotoxicity assays MTT. […]

[8] = tested on: MOR/P lung cancer cells (cisplatin-sensitive); experiment: In-vitro cell toxicity, MTT colorimetry assay (Example 2); assay type: cell-based, human; details: comparison value, incubation not stated
Method: (§3) The in-vitro cytotoxicity properties of the gold-55 particles (Au55) prepared in example 1. C) were carried out on HeLa cancer cells and on MOR/P and MOR/CPR lung cancer cells. MOR/P cells are sensitive to cisplatin, while MOR/CPR cells are resistant to cisplatin.
(§4) The HeLa cells were grown on a DMEM medium at 37° C. in a 5% CO2 atmosphere. The medium had been supplemented with 10% strength FCS serum and antibiotics. Daughter cultures were generated twice weekly. The MOR/P and MOR/CPR cells were grown on an RPMI 1640 medium at 37° C. in a 5% CO2 atmosphere. Said medium had likewise been supplemented with 10% strength FCS serum and antibiotics. Here too, daughter cultures were generated twice weekly.
(§5) The in-vitro cytotoxicity of the Au55 particles was determined in the following manner using 96-well microtiter plates and an MTT colorimetry assay (CellTiter 96® Aqueous One Solution Cell Proliferation Assay, Promega):
(§6) Cultures of each cell line were applied at a concentration of 1—10^5 cells/ml to the microtiter plates and grown in the above-described media at 37° C. in a 5% CO2 atmosphere for 72 hours. […]
(§7) Absorption at 490 nm was measured for each well of each microtiter plate by using a 96-well microtiter plate reader. The absorption measured at 490 nm was plotted as a function of the Au55 particle concentration and the IC50 value was determined.

[9] = tested on: MOR/CPR lung cancer cells (cisplatin-resistant); experiment: as above; assay type: cell-based, human; details: comparison value, incubation not stated
Method: as §3, §4, §5, §6, §7

[10] = tested on: MC3 normal bone cells; experiment: In-vitro cytotoxicity MTT assay (Example 4); assay type: cell-based; details: 72 h, read-out: IC50 cisplatin 72 h
Method: as §1, §2

SMILES	IC50 [1]	IC50 [2]	IC50 [3]	IC50 [4]	IC50 [5]	IC50 [6]	IC50 ([7]; 72 h)	IC50 [8]	IC50 [9]	IC50 [10]	Influence of the ligand molecules themselves on the life span of the cells ([7]; different concentrations of free ligand, 24 hours)
N.N.[Cl][Pt][Cl] [cisplatin, cis-diaminodichloroplatinum(II)]	11.2 ± 2.02 µM	7.93 ± 0.95 µM	3.3 ± 0.3 µM	20.1 ± 6 µM	54.7 ± 7.6 µM	> 50 µM	7.1 ± 1.2 µM	3.3 ± 0.3 µM	7.1 ± 1.2 µM	26.1 ± 1.27 µM	–
O=S(=O)(O)c1cccc(P(c2ccccc2)c2ccccc2)c1 [ligand molecules, Ph2PC6H4SO3H]	–	–	–	–	–	–	–	–	–	–	cannot be detected

From patent US20050287225A1, “Metal cluster nano-compounds for treating tumor diseases” (priority 2002, published 2005)
